From patent US20140088052A1, “CHALCONE DERIVATIVES AS NRF2 ACTIVATORS” (THE JOHNS HOPKINS UNIVERSITY, priority 2011, published 2014)

Tests used:
Beas-2B cells = assay: Cell viability / cytotoxicity (MTT assay) in Beas-2B cells; type: cell-based, human; settings: 24 h, DMSO = 100
Procedure: Concurrent with the gene expression analysis, the cytotoxicity of the chalcone derivatives was determined using the MTT assay.
Mad. Chem. 2007, 15, 2952-2962. […] Four hours before the end of incubation, the medium was removed and 100 μL of MTT (5 mg/mL in serum free medium) was added to each well. The MTT was removed after 4 h, cells were washed with PBS, and 100 μL DMSO was added to each well to dissolve the water-insoluble MTT-formazan crystals. The absorbance was recorded at 570 nm in a plate reader (Molecular Devices, Sunnyvale, Calif.).

Nrf2 = assay: In vivo potency to activate Nrf2: GCLM and NQO1 expression in mouse small intestine; parameters: species or system mice (C57BL/6); settings: mice, single dose 50 mg/kg by gavage, 24 h
Procedure: Mice (n=4) were fed with vehicle (DCP-10% DMSO+10% Cremophor+80% phosphate buffered saline) or chalcone derivatives or sulforaphane (50 mg/kg body weight) by gavage, and the small intestines were harvested 24 hours later. The expression of Nrf2-regulated genes GCLM and NQO1 was analyzed in the tissues by qRT-PCR as a surrogate marker of Nrf2 activity. β-actin was used for normalization. Data are representative of three independent experiments. Values shown are mean±SD of triplicate wells (P≦0.05);
The potency of the 8 lead chalcones identified in the in vitro screening to activate Nrf2 pathway were evaluated in mouse models. First, various formulations to dissolve the compounds were evaluated, and the DCP (10% DMSO+10% Cremophor EL+80% phosphate buffered saline) formulation offered the maximum solubility for delivery of these compounds by oral route. Mice (C57BL/6) were administrated with a single dose of vehicle or test compound(s) or sulforaphane as the positive control at a dose of 50 mg/kg body weight by gavage and small intestines were harvested 24 h later. The expression of Nrf2-regulated genes GCLM and NQO1 was analyzed in the tissue by qRT-PCR. All the eight compounds tested increased the expression of GCLM and NQO1 in small intestine. […] The expression of GCLM and NQO1 in the small intestine of mice treated with 2b was 6-fold and 10-fold higher compared to vehicle, respectively. Similarly, the expression of GCLM and NQO1 in the small intestine treated with 2b was 3-fold and 5-fold higher compared to sulforaphane, respectively.
All experiments in mice were performed in accordance with the standards established by the U.S. Animal Welfare Acts, set forth in NIH guidelines and the Policy and Procedures Manual of the Johns Hopkins University Animal Care and Use Committee. C57BL/6 mice (male, 7 weeks) were maintained on AIN 76A diet (Harlan Tekland, Madison, Wis.) and water ad libitum and housed at a temperature (range, 20-23° C.) under 12 h light/dark cycles. The mice were treated with chalcone analogs (50 mg/kg body weight) or vehicle or sulforaphane as a positive control by gavage. After 24 h treatment, the small intestines were harvested and stored at −80° C. until analysis.
Total RNA was extracted from cells/tissue using Qiagen RNeasy kit (Qiagen Corporation, Valencia, Calif.) and reverse transcription was performed by using random hexamers and MultiScribe reverse transcriptase according to the manufacturer's recommendations (Applied Biosystems, Foster City, Calif., USA). Quantitative real-time RT-PCR analyses of Nrf2, NQO1, HO1, and GCLM were performed by using Assay-on-Demand primers and probe sets from Applied Biosystems. Assays were performed using the ABI 7000 Taqman system (Applied Biosystems, Foster City, Calif.). β-actin was used for normalization.

[1] = tested on: mice subjected to total body irradiation (TBI); assay: Hematopoietic recovery after total body irradiation; type: in vivo
Procedure: At indicated time periods, a cohort of mice was sacrificed. Peripheral blood was collected by heart puncture at the indicated days and differential blood cell count was analyzed using Hemavet 950FS(P<0.05, n=3 per group). Femur bones were fixed, decalcified sectioned along the sagittal plan and stained with hematoxylin and eosin for analyzing marrow cellularity.

[2] = tested on: mice subjected to total body irradiation (TBI); assay: Survival of mice after total body irradiation; type: in vivo, mice (C57BL/6); settings: 5 more doses every 48 h; for survival: 30 days
Procedure: To determine whether 2-trifluoromethyl-2′-methoxychalone, a potent Nrf2 activator, improves survival after lethal irradiation, irradiated mice were treated with 2-trifluoromethyl-2′-methoxychalone (200 μmol/kg body weight) or vehicle (100% PEG) by gavage. […] (LD70/30; 70% death in 30 days).
To investigate the therapeutic efficacy of compound 2b to mitigate mortality and the hematopoietic syndrome, mice were subjected to total body irradiation (TBI). C57BL/6 (8 wks, males,) were fed chow pellets ad libitum and supplied non-acidic water. Mice were subjected to TBI (0.65 Gy/min) in an AECL Gamma cell 40 irradiator (Atomic Energy, Canada).
Mortality was monitored every day for 30 days.
Mortality was monitored every day for 30 days. […] The percent mortality of mice treated with the vehicle at 1 h or 6 h after radiation was 100% (data not shown).

OVA-induced asthma = OVA-induced asthma mouse model; type: in vivo; parameters: dose or concentration left out as unconfirmed; settings: mice, every other day during sensitization and challenge, prophylactic mode
Procedure: Mice were sensitized by intraperitoneal injection (day 0, day 14), and challenged intranasally, with OVA (day 21 to day 24). […] 24 h after the last dose of OVA challenge, airway inflammation (FIG. 16A) and airway hyperresponsiveness (AHR) (FIG. 16B) were assessed.

hematopoietic stem cells = assay: Bone marrow mononuclear cells and hematopoietic stem cells in irradiated mice; type: in vivo; settings: 6.9Gy, single dose 24 h after irradiation, compared to vehicle
[3] = tested on: LPS-induced TNF-α secretion; assay: LPS-induced TNF-α secretion by mouse peritoneal macrophages; type: cell-based, mice; settings: 5 μM or 10 μM for 16-20 h, LPS 100 ng/mL 4 h, compared to vehicle
Procedure: After 4 h, TNF-α secretion in cell-free media by macrophages was analyzed by ELISA.

COc1ccccc1C(=O)/C=C/c1ccccc1C(F)(F)F [Compound 2b, (E)-1-(2-methoxyphenyl)-3-(2-(trifluoromethyl)phenyl)prop-2-en-1-one]
% Cell Viability (Beas-2B cells): 100.9%
expression of GCLM in the small intestine, compared to sulforaphane (Nrf2): 3 fold
expression of GCLM in the small intestine, compared to vehicle (Nrf2): 6 fold
expression of NQO1 in the small intestine, compared to sulforaphane (Nrf2): 5 fold
expression of NQO1 in the small intestine, compared to vehicle (Nrf2): 10 fold
expression of GCLM and NQO1 in small intestine (Nrf2 activity) (Nrf2; in words): most potent inducer of Nrf2 activity
bone marrow cellularity (H&E staining) ([1]; 6.9 Gy TBI, day 7 and day 20, compared to vehicle): greater marrow cellularity
WBC, RBC and platelets on day 22 post-irradiation ([1]; 6.9 Gy TBI, oral treatment from 24 h after): significant increase in WBC, red blood cells (RBC) and platelets
white blood cells, neutrophils and lymphocytes post-irradiation ([1]; 6.9 Gy TBI, oral treatment from 24 h after, compared to vehicle): early increase in white blood cells (WBC), neutrophils and lymphocytes
hematopoietic reconstitution (CBC analysis, WBC) ([1]; 7.3 Gy TBI, treatment 24 hours after, 30 days): significant recovery of WBC
median survival ([2]; 7.3 Gy TBI, treatment started 24 hours after irradiation, 200 μmol/kg by gavage, vehicle approximately 15 days): 26 days
survival ([2]; TBI 6.9 Gy, oral 400 mg/Kg started 24 h after TBI): 90%
survival ([2]; TBI 7.1 Gy, oral 400 mg/Kg started 24 h after TBI): 60%
survival ([2]; TBI 7.3 Gy, oral treatment started 1 h after TBI): approximately 60%
survival ([2]; TBI 7.3 Gy, oral treatment started 6 h after TBI): ~50%
allergen-induced asthma (airway inflammation and airway hyper-responsiveness) (OVA-induced asthma): protected the mice from allergen-induced asthma
total BM-MNC per limb and total HSPC, HSC and MPP (hematopoietic stem cells; analysed 24 h after treatment): significantly higher
viable hematopoietic stem cells (colony forming cells assay) (hematopoietic stem cells): increased number of hematopoietic stem cells
LPS-induced TNF-α secretion by macrophages (ELISA) [3]: significant decrease in LPS-induced TNF-α secretion
